This is an account of results in PMC12550625, “A Potent Oral Sialylation Inhibitor Augments the Immunotherapy in Pancreatic Ductal Adenocarcinoma” (ACS Central Science, 2025).

One assay deals with T1, ST3Gal1 (Sus scrofa, UniProt Q02745).
T1 construct: Δ45, N-terminal 6xHis-MBP fusion
T1 sequence (Q02745 46-343): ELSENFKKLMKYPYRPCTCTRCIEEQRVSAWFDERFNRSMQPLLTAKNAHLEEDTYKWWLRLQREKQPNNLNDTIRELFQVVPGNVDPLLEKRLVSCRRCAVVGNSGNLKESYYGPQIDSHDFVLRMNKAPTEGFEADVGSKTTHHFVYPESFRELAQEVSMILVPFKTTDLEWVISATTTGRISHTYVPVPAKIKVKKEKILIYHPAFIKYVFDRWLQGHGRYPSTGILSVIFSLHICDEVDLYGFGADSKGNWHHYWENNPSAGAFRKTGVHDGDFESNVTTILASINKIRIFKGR
Briefly: SPR (CM5 chip, immobilized purified ST3Gal1). Format: binding.

For another assay, the target named is T2, ST6Gal1 (Homo sapiens, UniProt P15907).
T2 construct: Δ131, 3xFLAG
T2 sequence (P15907 132-406): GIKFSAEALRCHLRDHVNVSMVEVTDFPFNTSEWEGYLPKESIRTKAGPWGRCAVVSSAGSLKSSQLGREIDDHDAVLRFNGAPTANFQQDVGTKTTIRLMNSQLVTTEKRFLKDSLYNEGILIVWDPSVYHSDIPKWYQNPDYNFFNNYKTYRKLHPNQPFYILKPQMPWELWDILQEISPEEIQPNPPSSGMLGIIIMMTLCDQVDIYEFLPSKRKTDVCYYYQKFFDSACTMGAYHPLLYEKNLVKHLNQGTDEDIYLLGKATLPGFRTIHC
Briefly: SPR (CM5 chip, immobilized purified ST6Gal1). Format: binding. The source says:
SPR (CM5 chip, immobilized purified ST6Gal1) on ST6Gal1 | Pull-down and SPR analyses confirmed that Y-320 binds to ST6Gal1 with high affinity

On to `Cc1c(C(=O)Nc2ccc(N3CCC(N4CCOCC4)CC3)c(C#N)c2)cnn1-c1ccc(Cl)cc1` [Y-320], for which the dissociation constant Kd – broadly, the free concentration of one partner at which half of the binding sites on the other are occupied at equilibrium, for simple one-to-one binding – was 709 nM on ST3Gal1 and 885 nM at ST6Gal1.
